The values below come from patent US5240961A, “Method of treating reduced insulin-like growth factor and bone loss associated with aging” (priority 1992, dated 1993).

“And” between values parts separate entries of the source, which are not always exact repeats. Equal values may be shown once. “Also recorded” adds a separate entry of the source. Read-outs that look alike come from different tables or passages of the source.

The conditions of series [1]: compared to other vitamin D analogues; cited from earlier work.
Another series concerns serum osteocalcin. The series can be described thus: Comparative effects of L-carnitine, acetyl carnitine and γ-butyrobetaine on serum osteocalcin in adult mice. The class given is in vivo, mouse (BALB/c male). To be noted: for Osteocalcin: actual intake estimated about half. As for the experimental part:
(§1) The present invention is further explained by the following examples which should not be construed by way of limiting the scope of the present invention. In the following examples, serum carnitine levels were determined by the method of R. Parvin et al., Anal. Biochem., vol. 79 (1979) pp. 190-201. Serum IGF-1 concentrations were measured by immunoradiometric assay, for example, by IRMA Kit available from Diagnostic Systems Laboratories, Inc., Webster, Texas. Serum osteocalcin levels were measured according to the method of Grunaberg et al., Meth. Enzymology, vol 107 (1984) 516, and which is embodied in an osteocalcin kit available from Biomedical Technologies, Inc., Stoughton, Mass. All mice used in the animal studies were BALB/c strain which is commercially available.
(§2) Tests were performed to compare the effects on serum osteocalcin of diet supplementation with L-carnitine, its precursor, γ-butyrobetaine (available from Aldrich Chemical Co.) and one of its metabolites, acetylcarnitine (available from Life Science Resources, Milwaukee, Wis. 53223). Twenty adult mice, i.e., three months of age, (BALB/c male mice) were divided into seven groups. Each of the groups was fed diets as indicated hereinbelow for twelve weeks. One group (n=3) was fed a diet with L-carnitine supplementation at a dose of 50 mg/kg of body weight each day, while the second group (n=3) was fed L-carnitine at a daily dose of about 100 mg/kg. The third group (n=2) was fed a diet with acetylcarnitine supplementation at a daily dose of 50 mg/kg, while the fourth group (n=3) was fed a daily dose of 100 mg/kg of this compound. The fifth group (n=2) was fed a daily dose of 50 mg/kg of γ-butyrobetaine supplementation,while the sixth group was fed a daily dose of 100 mg/kg of γ-butyrobetaine. The seventh group (n=4) was fed normal, unsupplemented feed (control). Mouse blood was sampled prior to beginning of the trial (pretreatment), at six weeks, and at the end of the trial (twelve weeks). The samples were evaluated for serum osteocalcin levels at six and twelve weeks. Total carnitine was determined at twelve weeks.

The nature of series [2]: Serum carnitine at 12 weeks in adult mice fed L-carnitine, acetyl carnitine or γ-butyrobetaine. More on the design: species or system mouse (BALB/c male). To be noted: mouse, in vivo, po. As for the experimental part: as §1, §2
For series [3] the following is noted: human beings; cited from earlier work.
Series [4] deals with children with carnitine deficiency. Particulars: carnitine repletion; cited from earlier work.
For series [5] the following is noted: prolonged treatment, moderate or high doses; cited from earlier work.
For series [6] the following is noted: prolonged treatment, moderate or high doses; cited from earlier work. This is another data set of the same source.
Another series has as its system body composition. To be noted: replacement doses; cited from earlier work.

In the case of `C=C1/C(=C\C=C2/CCC[C@]3(C)[C@@H]([C@H](C)/C=C/[C@H](C)C(C)C)CC[C@@H]23)C[C@@H](O)C[C@@H]1O` [1α-hydroxy vitamin D2], the “toxicity” value in series [1] was “low toxicity”.
As for `CC(=O)O[C@H](CC(=O)[O-])C[N+](C)(C)C` [acetyl L-carnitine, acetylcarnitine, reference compound], the “significance of difference in osteocalcin vs control (p, student's t test)” value in the series on serum osteocalcin (50 mg/kg/day) is given as less than 0.01. For the same compound, the Osteocalcin in the series on serum osteocalcin (50 mg/kg/day, 6 wks) was 70 ng/mL and 70 ± 4 ng/mL; in the series with serum osteocalcin (50 mg/kg/day, 12 wks), 62 ng/mL; with serum osteocalcin (100 mg/kg/day, 6 wks) it was 60 ng/mL and 61 ± 6 ng/mL; in the series on serum osteocalcin (100 mg/kg/day, 12 wks) it was 77 ng/mL. Moreover, the concentration at 2016 h was found to be 45.6 µM in series [2] (50 mg/kg/day, 12 wks, read-out: Serum carnitine, Free); 59.6 µM in series [2] (50 mg/kg/day, 12 wks, read-out: Serum carnitine, Total); 52.1 µM in series [2] (100 mg/kg/day, 12 wks, read-out: Serum carnitine, Free); 65.1 µM in series [2] (100 mg/kg/day, 12 wks, read-out: Serum carnitine, Total).
As for `C[N+](C)(C)CC(O)CC(=O)[O-]` (stereo not drawn) [carnitine, β-hydroxy-γ-N-trimethylammounium butyrate], the serum half-life result in series [3] is given as “about 30 minutes”. In addition, the “stunted growth” value in series [4] is “normalizes with carnitine repletion”.
With `C[N+](C)(C)CCCC(=O)[O-]` [γ-butyrobetaine, 4-trimethylamino butyrate], the “significance of difference in osteocalcin vs control (p, student's t test)” value with serum osteocalcin (50 mg/kg/day) was less than 0.05; in the series with serum osteocalcin (100 mg/kg/day), “< .01”. Further, the Osteocalcin with serum osteocalcin (50 mg/kg/day, 6 wks) is 184 ng/mL and 184 ± 6 ng/mL; with serum osteocalcin (50 mg/kg/day, 12 wks), 173 ng/mL; in the series on serum osteocalcin (100 mg/kg/day, 6 wks), 220 ng/mL and 220 ± 75 ng/mL; in the series with serum osteocalcin (100 mg/kg/day, 12 wks) it was 122 ng/mL. In addition, the “effect on osteocalcin” value in the series with serum osteocalcin (adult mice, 50 and 100 mg/kg/day) is “stimulate osteocalcin production in adult mice; also recorded: maintained osteocalcin blood levels; also recorded: at least as effective as, and possibly better than, L-carnitine in increasing osteocalcin levels”. For the same compound, the concentration at 2016 h came to 40.7 µM in series [2] (50 mg/kg/day, Serum carnitine, Free); 63.2 µM in series [2] (50 mg/kg/day, Serum carnitine, Total); 40.4 µM in series [2] (100 mg/kg/day, Serum carnitine, Free); 58.5 µM in series [2] (100 mg/kg/day, Serum carnitine, Total).
Take “IGF-1: insulin-like growth factor 1, produced and released by the liver in response to growth hormone”: the potential side-effects entry in series [5] is “abdominal bloating, indigestion and nausea, and alteration in cellular insulin receptor sites”.
Regarding “growth hormone: pituitary growth hormone, now readily available as a biosynthetic product”, the side-effects observed result in series [6] is “stimulation of neoplastic growth, acromegaly, amenorrhea, flushing and nausea, "dawn" phenomena (a condition of insulin insufficiency which is very dangerous for diabetics), either hyperglycemia or hypoglycemia in diabetics, and fluid retention”. Besides, in the series with body composition, the “alterations in body composition” value is on record as “can be reversed by replacement doses of the hormone”.
